Measurements from patent publication US20250026743A1, “HETEROARYL-LINKED ANALOGS AS MGLU5 NEGATIVE ALLOSTERIC MODULATORS AND METHODS OF MAKING AND USING THE SAME” (Vanderbilt University, priority 2021, published 2025).
Like-named read-outs stand apart in the source and are kept apart here.

Biological target: T1, hmGlu5 (Homo sapiens, UniProt P41594)
T1 construct: expressed in transfected cells; host or cells: HEK 293A
Test: mGlu5 Ca2+ flux assay in HEK 293A cells (negative allosteric modulation of glutamate EC80 response)
Format: cell-based
Settings: for remaining activity at 30 µM: HEK293-A, read-out: hmGlu5 NAM Emin (%)
Protocol: HEK 293A cells stably expressing either rat or human mGlu5 were plated in black-walled, clear-bottomed, poly-D-lysine coated 384-well plates in 20 μL of assay medium (DMEM containing 10% dialyzed FBS, 20 mM HEPES, 100 units/mL penicillin/streptomycin plus 250 ng/mL Fungizone, and 1 mM sodium pyruvate) at a density of 20K cells/well. The cells were grown overnight at 37° C. in the presence of 5% CO2. The next day, medium was removed and the cells incubated with 20 μL of 2.3 μM Fluo-4, AM prepared as a 2.3 mM stock in DMSO and mixed in a 1:1 ratio with 10% (w/v) pluronic acid F-127 and diluted in assay buffer (Hank's balanced salt solution, 20 mM HEPES, and 2.5 mM probenecid) for 45 minutes at 37° C. Dye was removed, 20 μL of assay buffer was added, and the plate was incubated for 5 minutes at room temperature.
Ca^2+ flux was measured using the Functional Drug Screening System (FDSS7000, Hamamatsu, Japan). After establishment of a fluorescence baseline for about 3 seconds, the compounds of the present invention were added to the cells, and the response in cells was measured. 2.3 minutes later an EC20 concentration of the mGlu5 receptor agonist glutamate was added to the cells, and the response of the cells was measured for 1.9 minutes; an EC80 concentration of agonist was added and readings taken for an additional 1.7 minutes. All test compounds were dissolved and diluted to a concentration of 10 mM in 100% DMSO. Compounds were then serially diluted 1:3 in DMSO into 10 point concentration response curves, transferred to daughter plates, and further diluted into assay buffer to a 2× stock. Calcium fluorescence measures were recorded as fold over basal fluorescence; raw data was then normalized to the maximal response to glutamate. Antagonism of the agonist response of the mGlu5 receptor in the present invention was observed as a decrease in response to nearly maximal concentrations of glutamate in the presence of compound compared to the response to glutamate in the absence of compound.
The raw data file containing all time points was used as the data source in the analysis template. This was saved by the FDSS as a tab-delimited text file. Data were normalized using a static ratio function (F/F0) for each measurement of the total 360 values per well divided by each well's initial value. Data were then reduced to peak amplitudes (Max−Initial Min) using a time range that starts approximately 3 seconds prior to the glutamate EC20/EC80 addition and continues for approximately 90-120 seconds. This is sufficient time to capture the peak amplitude of the cellular calcium response. Individual amplitudes were expressed as % EMax by multiplying each amplitude by 100 and then dividing the product by the mean of the amplitudes derived from the glutamate ECMax-treated wells. IC50 values for test compounds were generated by fitting the normalized values versus the log of the test compound concentration (in mol/L) using a 4 parameter logistic equation where none of the parameters were fixed. Each of the three values collected at each concentration of test compound were weighted evenly.
For NAMs with a CRC that plateaus above 10% Glu Max, the IC50 values are reported, the compound is designated a “partial NAM” and the % Glu Max is reported. […] Compounds without measurable activity are designated as “>30,000 nM” since the top concentration of compound tested in the assay is 30 μM. […]

[1] = HEK 293A cells, Ca2+ flux, glutamate EC80, >10,000 = decrease without plateau, read-out: hmGlu5 NAM IC50

T1 sequence (P41594 21-1212): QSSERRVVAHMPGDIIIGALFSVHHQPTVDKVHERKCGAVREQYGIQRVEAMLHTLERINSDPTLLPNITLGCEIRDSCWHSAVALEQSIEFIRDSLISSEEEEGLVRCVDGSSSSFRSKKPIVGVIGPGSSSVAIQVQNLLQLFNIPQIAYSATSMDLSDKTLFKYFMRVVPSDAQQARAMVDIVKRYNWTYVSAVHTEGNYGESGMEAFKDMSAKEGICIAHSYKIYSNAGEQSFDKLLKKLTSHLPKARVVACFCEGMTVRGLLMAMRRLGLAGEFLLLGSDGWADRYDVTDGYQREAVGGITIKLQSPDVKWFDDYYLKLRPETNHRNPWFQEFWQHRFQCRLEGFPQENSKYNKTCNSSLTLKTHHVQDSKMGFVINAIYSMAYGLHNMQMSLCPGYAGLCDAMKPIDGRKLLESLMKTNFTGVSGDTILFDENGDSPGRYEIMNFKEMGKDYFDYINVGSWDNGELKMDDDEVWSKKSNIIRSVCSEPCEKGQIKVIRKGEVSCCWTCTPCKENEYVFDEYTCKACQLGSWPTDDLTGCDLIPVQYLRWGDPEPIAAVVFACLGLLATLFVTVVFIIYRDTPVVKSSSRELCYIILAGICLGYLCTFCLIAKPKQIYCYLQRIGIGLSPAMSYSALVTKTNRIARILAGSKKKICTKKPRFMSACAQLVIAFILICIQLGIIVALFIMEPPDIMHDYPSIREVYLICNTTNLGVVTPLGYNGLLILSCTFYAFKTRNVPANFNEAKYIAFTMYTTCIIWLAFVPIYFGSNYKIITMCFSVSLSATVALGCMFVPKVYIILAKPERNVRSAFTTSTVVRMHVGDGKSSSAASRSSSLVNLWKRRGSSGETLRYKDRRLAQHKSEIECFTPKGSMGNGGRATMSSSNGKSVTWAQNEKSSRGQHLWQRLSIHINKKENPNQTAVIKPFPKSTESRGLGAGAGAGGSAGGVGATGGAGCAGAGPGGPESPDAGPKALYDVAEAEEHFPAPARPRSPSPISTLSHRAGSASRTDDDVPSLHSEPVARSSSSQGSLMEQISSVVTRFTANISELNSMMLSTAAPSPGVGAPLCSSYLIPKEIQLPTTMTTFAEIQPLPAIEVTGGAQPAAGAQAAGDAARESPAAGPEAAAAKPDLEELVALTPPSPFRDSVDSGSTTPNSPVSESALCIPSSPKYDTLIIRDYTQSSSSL

Row | Structure (SMILES) | remaining activity at 30 µM (% Glu max at 30 μM) [%] | IC50 [1] [nM] | remaining activity at 30 µM [%] | IC50 [nM]
1 | Cc1nc(-c2nnc(-c3ccc(F)cc3)o2)cc(-c2cncc(F)c2)c1F [Compound 82, 2-(5,5′-difluoro-6′-methyl-[3,4′-bipyridin]-2′-yl)-5-(4-fluorophenyl)-1,3,4-oxadiazole] | – | 778 | 2 | –
2 | COc1cc(C#N)cc(-c2cc(-c3nnc(-c4ccc(F)cn4)o3)nc(C)c2F)c1 [Compound 109, 3-(3-fluoro-6-(5-(5-fluoropyridin-2-yl)-1,3,4-oxadiazol-2-yl)-2-methylpyridin-4-yl)-5-methoxybenzonitrile] | 2 | 66 | – | –
3 | Cc1csc(-c2nc(-c3cc(-c4cnccc4C)c(F)c(C)n3)no2)n1 [Compound 15, 3-(5′-fluoro-4,6′-dimethyl-[3,4′-bipyridin]-2′-yl)-5-(4-methylthiazol-2-yl)-1,2,4-oxadiazole] | 2 | 97 | – | –
4 | Cc1cc(O[C@@H]2CCOC2)cc(-c2noc(-c3nc(C)cs3)n2)n1 [Compound 106, (R)-3-(6-methyl-4-((tetrahydrofuran-3-yl)oxy)pyridin-2-yl)-5-(4-methylthiazol-2-yl)-1,2,4-oxadiazole] | 2 | 387 | – | –
5 | Cc1nc(-c2nnc(-c3ccncc3)o2)cc(-c2cncc(F)c2)c1F [Compound 81, 2-(5,5′-difluoro-6′-methyl-[3,4′-bipyridin]-2′-yl)-5-(pyridin-4-yl)-1,3,4-oxadiazole] | – | – | 55 | > 10000
6 | Cc1ccncc1-c1cc(-c2noc(-c3cnccn3)n2)nc(C)c1F [Compound 94, 3-(5′-fluoro-4,6′-dimethyl-[3,4′-bipyridin]-2′-yl)-5-(pyrazin-2-yl)-1,2,4-oxadiazole] | 37 | > 10000 | – | –
7 | Cc1ccncc1-c1cc(-c2noc(-c3cscn3)n2)nc(C)c1F [Compound 27, 3-(5′-fluoro-4,6′-dimethyl-[3,4′-bipyridin]-2′-yl)-5-(thiazol-4-yl)-1,2,4-oxadiazole] | 2 | 308 | – | –

Second part, led by results:

Row | remaining activity at 30 µM (% Glu max at 30 μM) [%] | IC50 [1] [nM] | Structure (SMILES) | remaining activity at 30 µM [%] | IC50 [nM]
8 | 58 | 1910 | Fc1ccc(-c2nc(-c3cc(-c4cncc(F)c4)cc(C4CCC4)n3)no2)nc1 [Compound 39, 3-(6′-cyclobutyl-5-fluoro-[3,4′-bipyridin]-2′-yl)-5-(5-fluoropyridin-2-yl)-1,2,4-oxadiazole] | – | –
9 | 20 | 3090 | Cc1nc(-c2noc(-c3ccc(F)cn3)n2)cc(-c2ccc(C3CC3)nc2)c1F [Compound 31, 3-(6-cyclopropyl-5′-fluoro-6′-methyl-[3,4′-bipyridin]-2′-yl)-5-(5-fluoropyridin-2-yl)-1,2,4-oxadiazole] | – | –
10 | 51 | > 10000 | Cc1nc(-c2noc(C3CCCCC3)n2)cc(-c2cncc(F)c2)c1F [Compound 36, 5-cyclohexyl-3-(5,5′-difluoro-6′-methyl-[3,4′-bipyridin]-2′-yl)-1,2,4-oxadiazole] | – | –
11 | 3 | 624 | Cc1nc(-c2noc(-c3ccc(F)cc3F)n2)cc(-c2cncc(F)c2)c1F [Compound 49, 3-(5,5′-difluoro-6′-methyl-[3,4′-bipyridin]-2′-yl)-5-(2,4-difluorophenyl)-1,2,4-oxadiazole] | – | –
12 | 2 | 124 | Cc1ccncc1-c1cc(-c2nc(-c3ccc(F)cn3)no2)nc(C)c1F [Compound 8, 5-(5′-fluoro-4,6′-dimethyl-[3,4′-bipyridin]-2′-yl)-3-(5-fluoropyridin-2-yl)-1,2,4-oxadiazole] | – | –
13 | 34 | 5500 | Cc1nc(-c2noc(-c3ccccc3F)n2)cc(-c2cncc(F)c2)c1F [Compound 47, 3-(5,5′-difluoro-6′-methyl-[3,4′-bipyridin]-2′-yl)-5-(2-fluorophenyl)-1,2,4-oxadiazole] | – | –
14 | 74 | > 10000 | Cc1ccncc1-c1cc(-c2noc(-c3cccnn3)n2)nc(C)c1F [Compound 92, 3-(5′-fluoro-4,6′-dimethyl-[3,4′-bipyridin]-2′-yl)-5-(pyridazin-3-yl)-1,2,4-oxadiazole] | – | –
